Data taken from ChEMBL document CHEMBL2311537, “Antiviral activity of (+)-sattabacin against varicella zoster” (Bioorg Med Chem Lett, 2013).

Experiments:
MRC5 [1] = assay: Cytotoxicity against human MRC5 cells assessed as inhibition of cell viability at >1000 uM after 24 hrs by MTT assay; assay type: cell-based; settings: mrc5, 24 h
[2] = Cytotoxicity against human MRC5 cells assessed as inhibition of cell viability after 24 hrs by MTT assay; assay type: cell-based
Human alphaherpesvirus 3 = assay: Antiviral activity against Varicella zoster virus Ellen infected in human MRC5 cells assessed as inhibition of viral replication by viral reduction plaque assay; assay type: functional, organism-based; settings: Human alphaherpesvirus 3, Ellen
[3] = Antiviral coefficient, ratio of CC50 for human MRC5 cells to IC50 for Varicella zoster virus Ellen infected in human MRC5 cells; assay type: functional
[4] = Antiviral coefficient, ratio of CC90 for human MRC5 cells to IC90 for Varicella zoster virus Ellen infected in human MRC5 cells; assay type: functional
MRC5 [5] = assay: Effect on CDC27 gene expression in human MRC5 cells infected with Varicella zoster virus Ellen at 100 uM after 24 hrs by DNA microarray analysis; assay type: functional
MRC5 [6] = assay: Effect on CACNB4 gene expression in human MRC5 cells infected with Varicella zoster virus Ellen at 100 uM after 24 hrs by DNA microarray analysis; assay type: functional
MRC5 [7] = assay: Effect on SLC20A2 gene expression in human MRC5 cells infected with Varicella zoster virus Ellen at 100 uM after 24 hrs by DNA microarray analysis; assay type: functional
MRC5 [8] = assay: Effect on KCNS3 gene expression in human MRC5 cells infected with Varicella zoster virus Ellen at 100 uM after 24 hrs by DNA microarray analysis; assay type: functional
MRC5 [9] = assay: Effect on DDX27 gene expression in human MRC5 cells infected with Varicella zoster virus Ellen at 100 uM after 24 hrs by DNA microarray analysis; assay type: functional
MRC5 [10] = assay: Effect on ZMYND15 gene expression in human MRC5 cells infected with Varicella zoster virus Ellen at 100 uM after 24 hrs by DNA microarray analysis; assay type: functional
MRC5 [11] = assay: Effect on PSME1 gene expression in human MRC5 cells infected with Varicella zoster virus Ellen at 100 uM after 24 hrs by DNA microarray analysis; assay type: functional
MRC5 [12] = assay: Effect on KRT5 gene expression in human MRC5 cells infected with Varicella zoster virus Ellen at 100 uM after 24 hrs by DNA microarray analysis; assay type: functional
MRC5 [13] = assay: Effect on ACTA1 gene expression in human MRC5 cells infected with Varicella zoster virus Ellen at 100 uM after 24 hrs by DNA microarray analysis; assay type: functional
MRC5 [14] = assay: Effect on CXCL1 gene expression in human MRC5 cells infected with Varicella zoster virus Ellen at 100 uM after 24 hrs by DNA microarray analysis; assay type: functional
MRC5 [15] = assay: Effect on EIF2B1 gene expression in human MRC5 cells infected with Varicella zoster virus Ellen at 100 uM after 24 hrs by DNA microarray analysis; assay type: functional
MRC5 [16] = assay: Effect on TPM2 gene expression in human MRC5 cells infected with Varicella zoster virus Ellen at 100 uM after 24 hrs by DNA microarray analysis; assay type: functional
MRC5 [17] = assay: Effect on ADCY8 gene expression in human MRC5 cells infected with Varicella zoster virus Ellen at 100 uM after 24 hrs by DNA microarray analysis; assay type: functional
MRC5 [18] = assay: Effect on RPL37A gene expression in human MRC5 cells infected with Varicella zoster virus Ellen at 100 uM after 24 hrs by DNA microarray analysis; assay type: functional
MRC5 [19] = assay: Effect on SNRPB gene expression in human MRC5 cells infected with Varicella zoster virus Ellen at 100 uM after 24 hrs by DNA microarray analysis; assay type: functional
MRC5 [20] = assay: Effect on MRPS18B gene expression in human MRC5 cells infected with Varicella zoster virus Ellen at 100 uM after 24 hrs by DNA microarray analysis; assay type: functional
MRC5 [21] = assay: Effect on MT1M gene expression in human MRC5 cells infected with Varicella zoster virus Ellen at 100 uM after 24 hrs by DNA microarray analysis; assay type: functional
MRC5 [22] = assay: Effect on SAP18 gene expression in human MRC5 cells infected with Varicella zoster virus Ellen at 100 uM after 24 hrs by DNA microarray analysis; assay type: functional
MRC5 [23] = assay: Effect on ACVR1 gene expression in human MRC5 cells infected with Varicella zoster virus Ellen at 100 uM after 24 hrs by DNA microarray analysis; assay type: functional
MRC5 [24] = assay: Effect on RNF43 gene expression in human MRC5 cells infected with Varicella zoster virus Ellen at 100 uM after 24 hrs by DNA microarray analysis; assay type: functional

CC(C)CC(=O)[C@@H](O)Cc1ccccc1
Activity (MRC5 [1]): Toxic
CC50 at 24 h [2]: 765 µM
CC90 at 24 h [2]: 3880 µM
IC50 (Human alphaherpesvirus 3): 58 µM
IC90 (Human alphaherpesvirus 3): 109 µM
Ratio CC50/IC50 [3]: 13.2
Ratio [4]: 35.6
fold change (FC) (MRC5 [5]): 0.823
fold change (FC) (MRC5 [6]): 0.741
fold change (FC) (MRC5 [7]): 0.675
fold change (FC) (MRC5 [8]): 0.673
fold change (FC) (MRC5 [9]): 0.642
fold change (FC) (MRC5 [10]): 0.577
fold change (FC) (MRC5 [11]): 0.576
fold change (FC) (MRC5 [12]): 0.566
fold change (FC) (MRC5 [13]): 0.545
fold change (FC) (MRC5 [14]): 0.544
fold change (FC) (MRC5 [15]): -1.402
fold change (FC) (MRC5 [16]): -1.336
fold change (FC) (MRC5 [17]): -1.328
fold change (FC) (MRC5 [18]): -1.282
fold change (FC) (MRC5 [19]): -1.193
fold change (FC) (MRC5 [20]): -1.168
fold change (FC) (MRC5 [21]): -1.153
fold change (FC) (MRC5 [22]): -1.128
fold change (FC) (MRC5 [23]): -1.105
fold change (FC) (MRC5 [24]): -1.092

Nc1nc2c(ncn2COCCO)c(=O)[nH]1 [ACYCLOVIR]
IC50 (Human alphaherpesvirus 3): 13 µM

Nc1nc(O)c2ncn(CCC(CO)CO)c2n1 [PENCICLOVIR]
IC50 (Human alphaherpesvirus 3): 16 µM
